Values quoted from earlier work as cited in patent publication US20250019715A1, “Ribosomal Biosynthesis Of Moroidin Peptides In Plants” (Whitehead Institute for Biomedical Research, priority 2021, published 2025).
Ends that are not written are not given here.

Assays:
tubulin polymerization = details: qualitative statement from prior knowledge
pain sensation = details: isolated as pain-causing agent from Dendrocnide moroides

Row | Compound | inhibitory activity against tubulin polymerization (tubulin polymerization) | pain-causing activity (pain sensation)
1 | CC(C)C[C@@H]1NC(=O)[C@@H](NC(=O)[C@@H]2CCC(=O)N2)[C@@H](C(C)C)c2ccc3c4c([nH]c3c2)-n2cnc(c2)C[C@@H](C(=O)O)NC(=O)CNC(=O)[C@H](CCCN=C(N)N)NC(=O)[C@H](C4)NC(=O)[C@H](C(C)C)NC1=O [moroidin] | potent inhibitory activity | pain-causing agent
2 | celogentin C (QLLVWPRH; bridge (positions not given here); also: bicyclic crosslinks, places not given here) [moroidin structural analog from Celosia argentea, core peptide QLLVWPRH] | potent inhibitory activity | –
